Experimental data taken from ChEMBL document CHEMBL5226385, “The Antiangiogenic and Antitumor Effects of Scoparasin B in Non-Small-Cell Lung Cancer” (J Nat Prod, 2023).
Active and inactive are the calls of the source. The rule behind the calls is not given here.

Experiments:
NCI-H1299 [1] = assay: Antitumor activity against human NCI-H1299 cells xenografted in BALB/c nude mouse assessed as reduction in tumor weight at 0.75 to 1.5 mg/kg, ip administered every other day for 20 days; type: functional, organism-based; details: dose 0.75-1.5 mg/kg, time 20.0 day
NCI-H1299 [2] = assay: Downregulation of Snail mRNA expression in human NCI-H1299 cells at 5 to 15 nM incubated for 24 hrs by qPCR analysis; type: functional, cell-based; details: dose 5-15 nM
HUVEC [3] = assay: Downregulation of VEGFR2 protein expression in human HUVEC cells at 5 to 15 nM incubated for 36 hrs by western blot analysis; type: functional, cell-based; details: dose 5-15 nM
NCI-H1299 [4] = assay: Downregulation of MMP9 protein expression in human NCI-H1299 cells at 5 to 15 nM incubated for 24 hrs by western blot analysis; type: functional, cell-based; details: dose 5-15 nM
Rattus norvegicus [5] = organism: Rattus norvegicus; assay: Ex vivo antiangiogenic activity against Sprague-Dawley rat aorta rings assessed as reduction in microvessel sprouting from aortic rings by measuring reduction in segment formation measured after 6 days by microscopic analysis; type: functional; details: dose 5-20 nM, time 6.0 day
NCI-H1299 [6] = assay: Antitumor activity against human NCI-H1299 cells xenografted in BALB/c nude mouse assessed as tumor volume at 0.75 mg/kg, ip administered every other day for 20 days by vernier caliper analysis (reference value: 1206.46 +/-332.44 mm3); type: functional; details: time 20 day
NCI-H1299 [7] = assay: Antitumor activity against human NCI-H1299 cells xenografted in BALB/c nude mouse assessed as tumor volume at 1.5 mg/kg, ip administered every other day for 20 days by vernier caliper analysis (reference value: 1206.46 +/-332.44 mm3); type: functional; details: time 20 day
HUVEC [8] = assay: Inhibition of VEGF-A secretion in human HUVEC cells incubated for 36 hrs by ELISA; type: functional, cell-based; details: dose 5-15 nM
Gallus gallus = organism: Gallus gallus; assay: Ex vivo antiangiogenesis activity in chicken embryo chorioallantonic membrane assessed as reduction in microvessel density at 5 to 20 nM measured after 48 hrs by stereomicroscopic analysis; type: functional, organism-based; details: Chorioallantoic membrane, dose 5-20 nM
NCI-H1299 [9] = assay: Downregulation of Vimentin mRNA expression in human NCI-H1299 cells at 5 to 15 nM incubated for 24 hrs by qPCR analysis; type: functional, cell-based; details: dose 5-15 nM
[10] = target: Vascular endothelial growth factor receptor 2 (Homo sapiens) (UniProt P35968); assay: Inhibition of VEGF-A-mediated VEGFR2 signaling pathway in human HUVEC cells assessed as reduction in VEGFR2 phosphorylation at Tyr1175 residue at 5 to 15 nM incubated for 36 hrs by western blot analysis; type: cell-based; details: dose 5-15 nM
NCI-H1299 [11] = assay: Downregulation of VE-Cadherin protein expression in human NCI-H1299 cells at 5 to 15 nM incubated for 24 hrs by western blot analysis; type: functional, cell-based; details: dose 5-15 nM
NCI-H1299 [12] = assay: Antitumor activity against human NCI-H1299 cells xenografted in BALB/c nude mouse assessed as increase in tumor necrotic areas at 0.75 to 1.5 mg/kg, ip administered every other day for 20 days by Hematoxylin and eosin staining based inverted microscopic analysis; type: functional, organism-based; details: dose 0.75-1.5 mg/kg, time 20.0 day
HMEC-1 [13] = assay: Downregulation of VEGF-A protein expression in human HMEC-1 cells at 5 to 15 nM incubated for 36 hrs by western blot analysis; type: functional, cell-based; details: dose 5-15 nM
Mus musculus = assay: Inhibition of tumor angiogenesis in BALB/c nude mouse xenografted with human NCI-H1299 cells assessed as reduction in […] cells in tumor at 1.5 mg/kg, ip administered every other day for 20 days by immunohistochemical analysis; type: functional, organism-based; details: time 20.0 day
HMEC-1 [14] = assay: Antiangiogenic activity against human HMEC-1 cells assessed as inhibition of cell migration measured after 24 hrs by Transwell migration assay; type: functional, cell-based; details: dose 5-15 nM
HBVP = assay: Inhibition of PDGF-BB mRNA expression in human HBVP cells at 5 to 15 nM incubated for 24 hrs by qPCR analysis; type: functional, cell-based; details: dose 5-15 nM
NCI-H1299 [15] = assay: Downregulation of Snail protein expression in human NCI-H1299 cells at 5 to 15 nM incubated for 24 hrs by western blot analysis; type: functional, cell-based; details: dose 5-15 nM
NCI-H1299 [16] = assay: Downregulation of MMP9 mRNA expression in human NCI-H1299 cells at 5 to 15 nM incubated for 24 hrs by qPCR analysis; type: functional, cell-based; details: dose 5-15 nM
[17] = target: Vascular endothelial growth factor receptor 2 (Homo sapiens) (UniProt P35968); assay: Inhibition of VEGF-A-mediated VEGFR2 signaling pathway in human HMEC-1 cells assessed as reduction in mTOR phosphorylation at Ser2448 residue at 5 to 15 nM incubated for 36 hrs by western blot analysis; type: cell-based; details: dose 5-15 nM
HMEC-1 [18] = assay: Antiangiogenic activity against human HMEC-1 cells assessed as inhibition of cell migration measured after 8 hrs by scratch wound healing assay; type: functional, cell-based; details: dose 5-15 nM
HMEC-1 [19] = assay: Downregulation of VEGFR2 protein expression in human HMEC-1 cells at 5 to 15 nM incubated for 36 hrs by western blot analysis; type: functional, cell-based; details: dose 5-15 nM
HMEC-1 [20] = assay: Antiangiogenic activity against human HMEC-1 cells assessed as inhibition of capillary tube-like structure formation at 15 nM incubated for 6 hrs by Matrigel based analysis; type: functional; set-up: scale not given: the % may be the effect or the level left
NCI-H1299 [21] = assay: […] of E-Cadherin protein expression in human NCI-H1299 cells at 5 to 15 nM incubated for 24 hrs by western blot analysis; type: functional, cell-based; details: dose 5-15 nM
[22] = target: Vascular endothelial growth factor receptor 2 (Homo sapiens) (UniProt P35968); assay: Inhibition of VEGF-A-mediated VEGFR2 signaling pathway in human HUVEC cells assessed as reduction in mTOR phosphorylation at Ser2448 residue at 5 to 15 nM incubated for 36 hrs by western blot analysis; type: cell-based; details: dose 5-15 nM
[23] = target: Platelet-derived growth factor receptor beta (Homo sapiens) (UniProt P09619); assay: Inhibition of PDGF-BB-mediated PDGFR-beta signaling axis in human HBVP cells assessed as inhibition of PDGFR-beta phosphorylation at Tyr857 residue at 5 to 15 nM incubated for 24 hrs by western blot analysis; type: cell-based; details: dose 5-15 nM
[24] = Toxicity against BALB/c nude mouse xenografted with human NCI-H1299 cells assessed as morphological changes in spleen at 0.75 to 1.5 mg/kg, ip administered every other day for 20 days by Hematoxylin and eosin staining based inverted microscopic analysis; type: organism-based; details: in vivo, 480 h, dose 0.75-1.5 mg/kg, time 20 day
[25] = Toxicity against BALB/c nude mouse xenografted with human NCI-H1299 cells assessed as morphological changes in liver at 0.75 to 1.5 mg/kg, ip administered every other day for 20 days by Hematoxylin and eosin staining based inverted microscopic analysis; type: organism-based; details: in vivo, 480 h, dose 0.75-1.5 mg/kg, time 20 day
[26] = Toxicity against BALB/c nude mouse xenografted with human NCI-H1299 cells assessed as morphological changes in kidneys at 0.75 to 1.5 mg/kg, ip administered every other day for 20 days by Hematoxylin and eosin staining based inverted microscopic analysis; type: organism-based; details: in vivo, 480 h, dose 0.75-1.5 mg/kg, time 20 day
[27] = Toxicity against BALB/c nude mouse xenografted with human NCI-H1299 cells assessed as change in body weight at 0.75 to 1.5 mg/kg, ip administered every other day for 20 days; type: organism-based; details: in vivo, 480 h, dose 0.75-1.5 mg/kg, time 20 day
[28] = target: Vascular endothelial growth factor receptor 2 (Homo sapiens) (UniProt P35968); assay: Inhibition of VEGF-A-mediated VEGFR2 signaling pathway in human HUVEC cells assessed as reduction in Akt phosphorylation at Thr308 residue at 5 to 15 nM incubated for 36 hrs by western blot analysis; type: cell-based; details: dose 5-15 nM
Rattus norvegicus [29] = organism: Rattus norvegicus; assay: Ex vivo antiangiogenic activity against Sprague-Dawley rat aorta rings assessed as reduction in microvessel sprouting from aortic rings by measuring reduction in total microvessel lengths measured after 6 days by microscopic analysis; type: functional; details: dose 5-20 nM, time 6.0 day
NCI-H1299 [30] = assay: Downregulation of VE-Cadherin mRNA expression in human NCI-H1299 cells at 5 to 15 nM incubated for 24 hrs by qPCR analysis; type: functional, cell-based; details: dose 5-15 nM

Chain of Vascular endothelial growth factor receptor 2 (Homo sapiens) (P35968 whole entry): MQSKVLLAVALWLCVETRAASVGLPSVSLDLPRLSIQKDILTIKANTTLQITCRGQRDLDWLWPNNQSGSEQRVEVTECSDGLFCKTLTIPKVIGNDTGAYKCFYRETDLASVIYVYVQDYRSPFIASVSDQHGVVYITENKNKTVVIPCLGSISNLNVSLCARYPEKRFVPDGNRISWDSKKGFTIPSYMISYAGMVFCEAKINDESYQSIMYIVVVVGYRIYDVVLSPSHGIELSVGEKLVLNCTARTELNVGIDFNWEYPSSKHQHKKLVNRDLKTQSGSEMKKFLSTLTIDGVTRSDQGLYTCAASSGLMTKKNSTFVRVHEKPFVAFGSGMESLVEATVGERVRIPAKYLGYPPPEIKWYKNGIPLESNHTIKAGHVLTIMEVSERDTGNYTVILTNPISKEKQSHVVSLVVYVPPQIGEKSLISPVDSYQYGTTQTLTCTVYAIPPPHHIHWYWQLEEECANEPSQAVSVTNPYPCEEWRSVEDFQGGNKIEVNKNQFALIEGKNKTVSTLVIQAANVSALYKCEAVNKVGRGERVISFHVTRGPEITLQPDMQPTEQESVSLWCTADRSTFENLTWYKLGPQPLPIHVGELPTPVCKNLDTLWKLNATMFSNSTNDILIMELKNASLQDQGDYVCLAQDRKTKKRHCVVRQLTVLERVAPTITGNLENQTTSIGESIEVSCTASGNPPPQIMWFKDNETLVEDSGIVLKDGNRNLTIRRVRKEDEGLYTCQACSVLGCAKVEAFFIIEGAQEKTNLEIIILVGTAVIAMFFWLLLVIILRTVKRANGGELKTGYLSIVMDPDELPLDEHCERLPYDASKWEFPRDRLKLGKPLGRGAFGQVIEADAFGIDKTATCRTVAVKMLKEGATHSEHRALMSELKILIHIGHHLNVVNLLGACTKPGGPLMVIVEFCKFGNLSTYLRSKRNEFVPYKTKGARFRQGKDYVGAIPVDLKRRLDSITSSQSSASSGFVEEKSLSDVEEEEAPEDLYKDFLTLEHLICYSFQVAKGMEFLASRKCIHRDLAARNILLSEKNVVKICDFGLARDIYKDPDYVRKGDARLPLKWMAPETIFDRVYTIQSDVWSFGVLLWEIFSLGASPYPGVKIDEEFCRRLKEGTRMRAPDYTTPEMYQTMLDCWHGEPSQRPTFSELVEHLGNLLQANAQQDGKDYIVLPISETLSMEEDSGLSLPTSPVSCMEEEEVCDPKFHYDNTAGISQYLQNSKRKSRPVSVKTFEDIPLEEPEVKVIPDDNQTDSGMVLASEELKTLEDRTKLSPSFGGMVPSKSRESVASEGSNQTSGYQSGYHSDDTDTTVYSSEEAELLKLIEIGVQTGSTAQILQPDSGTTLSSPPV
Chain of Platelet-derived growth factor receptor beta (Homo sapiens) (P09619 whole entry): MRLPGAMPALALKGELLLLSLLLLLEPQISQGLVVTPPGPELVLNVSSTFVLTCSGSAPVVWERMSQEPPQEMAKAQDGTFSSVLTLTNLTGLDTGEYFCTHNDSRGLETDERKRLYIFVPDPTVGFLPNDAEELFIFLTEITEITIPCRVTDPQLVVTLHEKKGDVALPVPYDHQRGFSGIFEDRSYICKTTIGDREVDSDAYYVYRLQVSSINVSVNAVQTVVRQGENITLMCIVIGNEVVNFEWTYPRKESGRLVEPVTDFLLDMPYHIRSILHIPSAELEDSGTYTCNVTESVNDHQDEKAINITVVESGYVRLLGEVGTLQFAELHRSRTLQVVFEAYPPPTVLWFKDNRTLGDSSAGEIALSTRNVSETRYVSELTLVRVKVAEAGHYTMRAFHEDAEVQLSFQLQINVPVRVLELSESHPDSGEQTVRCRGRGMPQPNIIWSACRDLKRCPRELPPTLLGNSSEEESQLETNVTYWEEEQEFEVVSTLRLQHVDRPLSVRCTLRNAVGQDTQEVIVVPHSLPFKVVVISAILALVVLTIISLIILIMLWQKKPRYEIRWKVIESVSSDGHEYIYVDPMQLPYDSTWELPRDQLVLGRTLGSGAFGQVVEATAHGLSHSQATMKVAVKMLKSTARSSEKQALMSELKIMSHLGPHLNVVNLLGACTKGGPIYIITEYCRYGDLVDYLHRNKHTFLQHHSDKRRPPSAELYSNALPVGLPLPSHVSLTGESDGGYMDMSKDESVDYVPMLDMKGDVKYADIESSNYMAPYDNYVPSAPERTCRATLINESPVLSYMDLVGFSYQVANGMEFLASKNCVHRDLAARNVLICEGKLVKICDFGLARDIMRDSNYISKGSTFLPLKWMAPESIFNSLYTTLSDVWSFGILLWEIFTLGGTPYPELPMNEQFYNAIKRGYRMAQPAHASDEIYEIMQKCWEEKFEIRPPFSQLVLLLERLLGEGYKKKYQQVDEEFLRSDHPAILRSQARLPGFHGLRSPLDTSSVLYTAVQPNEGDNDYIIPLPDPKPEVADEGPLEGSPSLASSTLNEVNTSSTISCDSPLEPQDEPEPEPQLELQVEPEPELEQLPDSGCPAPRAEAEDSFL

Question: For `COc1ccc(C[C@@H]2NC(=O)[C@@]34OC(=O)O/C=C/[C@@](C)(O)C(=O)[C@@H](C)C/C=C/[C@H]3[C@H](O)[C@](C)(O)[C@@H](C)[C@@H]24)cc1` [SCOPARASIN B], which Activity (NCI-H1299 [1]) is on record?
Answer: Active

Question: What about the inhibition (NCI-H1299 [2]) of the same compound?
Answer: Active

Question: And the inhibition (HUVEC [3])?
Answer: inactive

Question: What about the inhibition (NCI-H1299 [4]) of the same compound?
Answer: Active

Question: What about the Activity (Rattus norvegicus [5]) of the same compound?
Answer: Dose-Dependent Effect

Question: And the Activity (NCI-H1299 [6])?
Answer: 559.86 mm3

Question: What about the Activity (NCI-H1299 [7]) of the same compound?
Answer: 190.09 mm3

Question: And the inhibition (HUVEC [8])?
Answer: Dose-Dependent Effect

Question: And the Activity (Gallus gallus)?
Answer: Active

Question: And the inhibition (NCI-H1299 [9])?
Answer: Active

Question: And the inhibition [10]?
Answer: Active

Question: And the inhibition (NCI-H1299 [11])?
Answer: Active

Question: And the Activity (NCI-H1299 [12])?
Answer: Active

Question: What about the inhibition (HMEC-1 [13]) of the same compound?
Answer: Active

Question: And the inhibition (Mus musculus)?
Answer: Active

Question: And the Activity (HMEC-1 [14])?
Answer: Dose-Dependent Effect

Question: What about the inhibition (HBVP) of the same compound?
Answer: Active

Question: And the inhibition (NCI-H1299 [15])?
Answer: Active

Question: And the inhibition (NCI-H1299 [16])?
Answer: Active

Question: What about the inhibition [17] of the same compound?
Answer: Active

Question: What about the Activity (HMEC-1 [18]) of the same compound?
Answer: Dose-Dependent Effect

Question: What about the inhibition (HMEC-1 [19]) of the same compound?
Answer: inactive

Question: And the Activity (HMEC-1 [20])?
Answer: 100%

Question: And the inhibition (NCI-H1299 [21])?
Answer: Active

Question: And the inhibition [22]?
Answer: Active

Question: And the inhibition [23]?
Answer: Active

Question: What about the Activity [24] of the same compound?
Answer: Non-Toxic

Question: And the Activity [25]?
Answer: Non-Toxic

Question: And the Activity [26]?
Answer: Non-Toxic

Question: What about the Activity [27] of the same compound?
Answer: Non-Toxic

Question: And the inhibition [28]?
Answer: Active

Question: And the Activity (Rattus norvegicus [29])?
Answer: Dose-Dependent Effect

Question: And the inhibition (NCI-H1299 [30])?
Answer: Active
